The values below are quoted from earlier work in patent publication EP1030653B1, “DINITROANILINE LIPOSOMAL FORMULATIONS AND PROCESSES FOR THEIR PREPARATION” (INSTITUTO NACIONAL DE ENGENHARIA E TECNOLOGIA …, priority 1998, dated 2000).

The series deals with Leishmania sp.

With `N=C(N)c1ccc(OCCCCCOc2ccc(C(=N)N)cc2)cc1` [pentamidine], the “efficacy (in words)” value (literature) is on record as “less efficacy than antimonial derivatives”.

With `CCC1=C(C[C@H]2NCCc3cc(OC)c(OC)cc32)C[C@H]2c3cc(OC)c(OC)cc3CCN2C1` [dehydroemetine], the cure is 67%.

For the molecule `CCCN(CCC)c1c([N+](=O)[O-])cc(C(F)(F)F)cc1[N+](=O)[O-]` [trifluralin], the “activity against the visceral forms” value (topical route, literature (12)) was “no activity”.

As for `CN(Cc1cnc2nc(N)nc(N)c2n1)c1ccc(C(=O)N[C@@H](CCC(=O)O)C(=O)O)cc1` [methotrexate], the “reduction on the infection level” value (literature (10, 11)) is given as 85%.

Regarding `CC(=O)N(O)CCCCCNC(=O)CCC(=O)N(O)CCCCCNC(=O)CCC(=O)N(O)CCCCCN` [desferrioxiamine], under “literature (32)”, the efficiency is given as 44%.
